Data from a melting point compilation (Tetko et al.; mined from patent text by program, amines drawn as free bases though some values may be those of a salt).
Residues, ends and D or L forms follow the SMILES beside them. *: point of attachment. Tos = Cc1ccc(S(=O)(=O)*)cc1

melting point [°C]	Compound
176	CCC(=O)OC1C(=O)N(c2nnc(C(C)(C)C)s2)C(=O)N1C (stereo unspecified)
208 to 211	Cc1ccc(C(=O)Nc2cc(N3CCOCC3)cc(C(F)(F)F)c2)cc1Nc1nccc(-c2cccnc2)n1
196	N#Cc1c(N2CCN(C(=O)c3ccco3)CC2)c2cc(Cl)cnc2n(Cc2ccccc2)c1=O
215 to 217	CC(=O)OCC(=O)[C@@]1(O)CCc2c(O)c3c(c(O)c2C1)C(=O)c1cccc(O)c1C3=O
119 to 121	C=CC(=O)Oc1c(C(C)c2cc(C(C)(C)CC)cc(C(C)(C)CC)c2O)cc(C(C)(C)CC)cc1C(C)(C)CC (stereo unspecified)
125 to 130	CCOC(=O)c1ccc2c(c1)c(C)c(CBr)n2C(C)=O
160 to 162	Cc1ccc(S(=O)(=O)N2CCC[C@H]2C(=O)N[C@@H](C)C(=O)O)cc1 (Tos-Pro-Ala-OH)
223 to 224	CC(=O)NCC1CN(c2ccc(N3CCN(c4nc5ccccc5o4)CC3)c(F)c2)C(=O)O1 (stereo unspecified)
209 to 211	CCCn1nc2c(N)nc3c(c2c1CC(C)(C)S(C)(=O)=O)CCCC3
178	O=C(N[C@H]1CC[C@H](CCN2CCN(c3nccc4c3CCO4)CC2)CC1)C1(O)CCC1
156 to 158	C[C@@H](NC(=O)OCc1ccccc1)[C@H](O)C(=O)O
206 to 208	CC(C)(C)OC(=O)N1CCN(C(=O)C2C3CCC(O3)C2C(=O)O)CC1 (stereo unspecified)
264 to 266	O=C(O)c1cc(O)c(C(=O)c2ccccc2)c([N+](=O)[O-])c1
209 to 212	O=C(O)c1cn(C2CC2)c2nc(Cl)c(F)cc2c1=O
187 to 191	CN(C(=O)Nc1c(F)cc(F)cc1CCc1cc(C(C)(C)C)c(O)c(C(C)(C)C)c1)C1CCN(Cc2ccccc2)CC1
172 to 174	CN[C@@]1(C)CCN(c2c(-c3ccccc3)c(C)c(C#N)c3nc(C(=O)N(C)C)oc23)C1
68 to 71	CCCCOC(=O)OCN1C(=O)CN(CCN2CC(=O)N(COC(=O)OCCCC)C(=O)C2)CC1=O
111 to 114	c1ccc(CN2CCC(n3cnnc3-c3ccccc3)CC2)cc1

The next lines start with the compound.

Compound	melting point [°C]
CCCC1=C(C#N)C(c2ccccc2Br)c2c[nH]nc2N1 (stereo unspecified)	237
CC(Br)C(=O)c1ccc(OCc2ccccc2)c(CO)c1 (stereo unspecified)	80
Nc1cc(OCC2CC=CCC2)cc(N)n1 (stereo unspecified)	89
S=c1[nH]ccn1OCc1cccnc1	128 to 129
O=C(Oc1cccc(F)c1)c1ccccc1F	37.5 to 38.5
CCN(CC)CCNC(=O)c1cc(Cl)c2cc(I)ccc2n1	64 to 66
O=C(O)c1ccc(-c2nc(-c3ccc(OC(F)(F)F)cc3)cs2)cc1	245 to 246
OC1CCSC(=S)N1Cc1ccco1 (stereo unspecified)	42 to 43
CS(=O)(=O)c1ccc(NCCc2[nH]c3c(cnc4cc(Cl)ccc43)c2C=NNc2ccccc2)cc1	185 to 186
COc1ccc2nc(-c3cccc4ccccc34)[nH]c(=O)c2c1	174 to 175
Nc1nc(Oc2cc(F)cc(F)c2)nc2nc(-c3ccco3)nn12	> 300
Cc1[nH]c(C)c(-c2ccc(Oc3ccc(Cl)cc3)cc2)c(=O)c1Cl	340 to 343
COc1ccc(-n2nc(O)c3c(c2=O)Cc2ccc(Cl)cc2N3)c(C)c1	264 to 266
COc1ccc2ncc(C#N)c(Nc3cc(O)c(Cl)cc3F)c2c1	228 to 230
CC(C)COC(=O)c1ccc2nc(N)n(S(=O)(=O)N(C)C)c2c1	197 to 198
CCCCCCCCCCCCCc1nnc(N)o1	147 to 150
N#Cc1cc(-c2ccoc2)c2ccc(COc3cc(F)cc(-c4ccoc4)c3)cc2n1	156 to 159

Compound	melting point [°C]
COc1cccc(-c2cc(F)cc3c2OC(CN)C3)c1OC (stereo unspecified)	166 to 167
CCCCCCCCCCCCCCOc1ccc(CC(=O)OC)cc1	36 to 38
Cc1c(C)c2c(c(C)c1OCc1ccccc1)CC[C@@](C)(CCO)O2	55 to 56
CS(=O)(=O)c1ccc(-n2nc(C(F)(F)F)cc2-c2ccc(-c3ccco3)cc2)cc1	196
Cc1ccc(C(=O)c2ccc(Cc3c(Cl)cc([N+](=O)[O-])cc3Cl)cc2)cn1	121 to 123
C=CCC1C(=O)N(Cc2ccccc2)c2ccccc2NC1C (stereo unspecified)	81 to 83
O=C(c1cccs1)c1cccc2cc[nH]c12	129 to 130
ClC(c1ccccc1)c1ccc(C2CCCCC2)cc1 (stereo unspecified)	75
CC(C)(C)[Si](C)(C)O[C@@H]1c2sccc2[C@]2(O[Si](C)(C)C(C)(C)C)C[C@H]1OC2=O	133 to 137
COc1ccc(C(=O)Oc2c(C)c(C)c3oc(C)c(-c4ccc(C(C)C)cc4)c3c2C)cc1	113 to 115
CS(=O)c1nnc(-c2ccc3ncn(-c4ccc(OC(F)F)cc4)c3c2)o1 (stereo unspecified)	135 to 136
O=C1C(CCO)Oc2ccccc2N1Cc1ccncc1 (stereo unspecified)	153 to 154
CCCCc1c(Cl)nc(N=CN(C)C)nc1Cl	66 to 68
Clc1ccc(-c2noc(CCC#Cc3ccccn3)n2)cc1	75 to 77
COc1cccc(C23CCCC=C2C(=O)N(CCc2ccc(C)cc2)C(=O)C3)c1 (stereo unspecified)	134 to 140
COc1cc(N(Cc2cccc(SC(F)(F)F)c2)C[C@@H](O)C(F)(F)F)cc(OC)c1OC	88.9 to 89.1
